These results are taken from paper PMC2586329 (Biochemistry, 2008).

One test deals with ferric EcDosH (Escherichia coli, UniProt P76129).
The subject of another test is ferrous EcDosH. Particulars: cited from earlier work.
A further test has as its system full-length EcDos. The conditions noted are these: pH 8; cited from earlier work.
The test system of another test is EcDosH. The conditions noted are these: cited from earlier work.
The test system of another test is EcDos. Particulars: cited from earlier work.

Where two headings read alike, the source gives them in different places.

Chain of ferric EcDosH (P76129 1-139): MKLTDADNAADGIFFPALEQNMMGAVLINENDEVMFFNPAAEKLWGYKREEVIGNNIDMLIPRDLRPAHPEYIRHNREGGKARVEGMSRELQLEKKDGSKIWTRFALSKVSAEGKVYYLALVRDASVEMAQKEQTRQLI

In the case of `OO` [H2O2, hydrogen peroxide], the “effect on the heme at high hydrogen peroxide concentrations” value on ferric EcDosH was “oxidative degradation of the heme is observed”.

Turning to `[C-]#[O+]` [CO], the association rate constant in the test with ferrous EcDosH (pH 7) was 1100 M⁻¹ s⁻¹; in the test on ferrous EcDosH (pH 8), 7800 M⁻¹ s⁻¹; in the test with full-length EcDos, 810 M⁻¹ s⁻¹.

For `O=O` [O2], the association rate constant was 2600 M⁻¹ s⁻¹ in the test on ferrous EcDosH (pH 7), 31000 M⁻¹ s⁻¹ in the test with ferrous EcDosH (pH 8) and 1900 M⁻¹ s⁻¹ in the test on full-length EcDos.

Consider `F` [fluoride], for which the affinity for binding result with EcDosH and in the test with EcDos was “very low affinities” in each case.

As for `c1c[nH]cn1` [imidazole], the affinity for binding entry with EcDosH and in the test on EcDos was “very low affinities” in each case.

`[N-]=[N+]=[N-]` [azide]: the affinity for binding result in the test on EcDosH and in the test on EcDos was “very low affinities” throughout.
